From patent US11007169B2, “Cis-gnetin H and trans-gnetin H as therapeutic agents” (MIDDLE TENNESSEE STATE UNIVERSITY, priority 2014, dated 2021) come the findings set out here.

Molecules are shown by their SMILES.

The subject of series [1] is MCF-7 cells (human breast carcinoma). The series can be described thus: Inhibition of cell proliferation, AlamarBlue fluorescent assay, MCF-7. Format: cell-based. Particulars: MCF7, 48 hours, cancer cell line. On the procedure: The cancer cell lines used in this study included human lung carcinoma (A549), human breast carcinoma (BT20 and MCF-7) and human osteosarcoma (U2OS), with the normal cell lines human peripheral lung epithelial cells (HPL1A) and human mammary epithelial cells (HMEC) serving as controls. A549, BT20, MCF-7, U2OS and HMEC cells were purchased from American Type Culture Collection (ATCC, USA), and HPL1A cells were obtained from Nagoya University, Japan. A549 and BT20 were grown in RPMI-1640 (Sigma), MCF-7 was grown in Dulbecco's Modified Eagle Medium (DMEM) (Sigma) supplemented with 0.01 mg/ml human recombinant insulin (Sigma), U2OS and HMEC were grown in McCoy's 5A (ATCC), and HPL1A was grown in DMEM/F-12K (Sigma). The mediums were supplemented with 10% Fetal Bovine Serum (FBS) (Gibco), 1% penicillin and streptomycin and incubated in a humidified atmosphere with 5% CO2 at 37° C.
The proliferation inhibition potential of cis- and trans-gnetin H was determined by a fluorescence dye staining method. Cells were seeded in a 96-well tissue culture-treated plate (BD Falcon) at a density of 4000 cells/well, and treated with cis- or trans-gnetin H for 48 hours. AlamarBlue dye (Invitrogen) was used to assess the viability of cells according to the manufacturer's instructions; the fluorescent intensity was read on a SpectraMax M2e microplate reader (Molecular Devices Inc.). […]
For orientation: The colour change of resazurin is a common sign of viable cells or microbes.

In series [2] the test system is IL-8 in LPS-stimulated THP-1 cells. The series is described as follows: Cytokine response by ELISA, IL-8. Format: cell-based, human. Particulars: cis 12.5-50 μM, trans 8-30 μM, 20 ng/ml LPS, p<0.05. On the procedure: (§1) THP-1 cells were maintained in RPMI 1640 medium supplemented with 10% complement-inactivated FBS and 1% penicillin/streptomycin (complete culture medium) at 37° C. with 5% CO2 supplemented. Cell concentrations were adjusted to desired concentrations for each experiment by centrifugation at 500×g for 5 min and resuspended in complete culture medium with 100 nM of PMA. Cell concentration was adjusted to 5×10^5 cells/ml for all assays and 2.5×10^5 cells/ml were used for NF-κB nuclear translocation assay. Cells were seeded onto 96-, 24-, or 12-well plates and incubated for 48 to 72 h to allow for differentiation. Cells were washed with serum-free RPMI 1640 medium before each experiment to remove the undifferentiated cells.
(§2) Differentiated THP-1 cells were pretreated with various concentrations of cis-gnetin H, trans-gnetin H, or 1 μM of dexamethasone for 1 h and stimulated with 20 ng/ml of LPS for 4 h. Dexamethasone is a synthetic glucocorticoid that suppresses cytokine response and was used as a positive control (Abraham et al., 2006, J. Exp. Med., 203:1883-9; Steer et al., J. Biol. Chem., 2000, 275(24):18432-40). Supernatants were collected for human cytokine ELISAs and the manufacturer's protocol was followed to assess the cytokine response. Cells remaining after the supernatant collection were tested for relative viability by Alamar Blue cytotoxicity assay as described earlier.
Background: ELISA stands for enzyme-linked immunosorbent assay.

The test system of series [3] is phosphorylated IKK α/β (Ser176/180) in LPS-stimulated THP-1 cells. The series can be described thus: Western blot, IKK β phosphorylation. Format: cell-based, human. The procedure:
as §1
(§3) Differentiated THP-1 cells were pretreated with various concentrations of cis-gnetin H, trans-gnetin H, or 10 μM of Bay 11-7082 for 1 h and stimulated with 1 μg/ml of LPS for 15 min. Cells were lysed with radio-immunoprecipitation assay (RIPA; 1% Triton X-100, 0.5% Sodium deoxycholate, 0.1% sodium dodecyl sulfate, 150 mM sodium chloride, and 50 mM Tris-chloride) lysis buffer that contained protease and phosphatase inhibitor cocktail. Cell lysates were then tested for protein concentration using a BCA protein assay, and diluted with RIPA lysis buffer to normalize protein concentration in all samples. […]
Background: Immunoblotting shows a protein as a band on a membrane.

Series [4] in a line: Conversion testing under 12-watt fluorescent lamp, HPLC. Particulars: 6-hour treatment; for concentration of the compound after illumination: HPLC. Format: physicochemical. The procedure:
For stability testing, cis- and trans-gnetin H were dissolved with methanol to a concentration of 1 mg/ml. The stock solutions were sealed in a glass bottle and kept in the dark at room temperature for 6 months and then the purity of the two compounds was tested using the HPLC method previously described (He et al., J. Liq. Chromatog. Rel. Technol. 2013; 36:1708-1724). For conversion testing, cis- and trans-gnetin H were individually illuminated with a 12-watt fluorescent lamp for 2, 4 and 6 hours, and the compounds were identified using HPLC.

The subject of series [5] is BT20 cells. The series can be described thus: Apoptosis assay by flow cytometry, BT20. Format: cell-based, human. Particulars: 100 μM, 24 hours. The procedure:
A549 and BT20 cells were seeded in a 96-well plate (BD Falcon) at a density of 8000 cells/well, and treated with cis- or trans-gnetin H for 24 hours. Apoptosis was assessed using Annexin V/7-AAD double staining as described (Bai et al., Cancer Sci. 2010; 101(2):488-493). Cells were analyzed on a Guava Flow Cytometer (Millipore) using InCyte software and the data was exported to FlowJo software for image display.

Series [6] has as its system PMA-differentiated THP-1 macrophages. The series can be described thus: Cell viability Alamar Blue assay, PMA-differentiated THP-1. Particulars: for viability of PMA-differentiated THP-1 cells: 3, 6, 13, 25, 50, 100 μM, 24 h treatment. Format: cell-based, human. On the procedure: as §1
Differentiated THP-1 cells were treated with various concentrations of cis- and trans-gnetin H and 1 μM of dexamethasone for 24 h. Following treatment, the cell supernatants were replaced with culture medium containing 1× Alamar Blue reagent and incubated for an additional 20-24 h. Cell viability was assessed by measuring Relative Fluorescent Units (RFU) on the SpectraMax M2e microplate reader (Molecular Devices Inc., Sunnyvale, Calif., USA) at Ex 560 nm and Em 590 nm. The results were expressed as a percentage, relative to untreated control cells (FIG. 9). Untreated and LPS-treated cells were tested for the effect of DMSO as vehicle control.
as §2

For series [7], the system named is phosphorylated IκB α (Ser32) in LPS-stimulated THP-1 cells. The series is described as follows: Western blot, IκB α phosphorylation. Format: cell-based, human. Particulars: concentration-dependent. The procedure: as §1, §3

By IC50 is commonly meant the midpoint of a concentration-inhibition curve. High values mean lower potency, low ones higher potency. In turn, `Oc1ccc(/C=C\c2c3c(cc4c2[C@H](c2cc(O)cc(O)c2)[C@@H](c2ccc(O)cc2)O4)O[C@H](c2ccc(O)cc2)[C@H]3c2cc(O)cc(O)c2)cc1` [cis-gnetin H] had an IC50 in series [1] of 10 µM. The “inhibition of IL-8” value in series [2] was “significant inhibition”. In addition, the “IKK β phosphorylation” value in series [3] is on record as “significantly inhibited”. In addition, the “concentration of the compound after illumination” value in series [4] turned out to be 88.9%. Further, the “apoptosis induction in BT20” value in series [5] is reported as “induce apoptosis”. In addition, the “viability of PMA-differentiated THP-1 cells” value in series [6] is “Neither cis- nor trans-gnetin H affected the viability of the cells”. Further, the “cell viability with LPS” value in series [6] (pretreatment 12.5, 25, 50 μM and LPS) is “no effect on cell viability”. Also, in series [7], the “IκB α phosphorylation” value was “significantly inhibited”.
In turn, `Oc1ccc(/C=C/c2c3c(cc4c2[C@H](c2cc(O)cc(O)c2)[C@@H](c2ccc(O)cc2)O4)O[C@H](c2ccc(O)cc2)[C@H]3c2cc(O)cc(O)c2)cc1` [trans-gnetin H] showed an IC50 in series [1] of 7.58 µM. Also, the “inhibition of IL-8” value in series [2] is “significant inhibition”. Also, in series [3], the “IKK β phosphorylation” value is “significantly inhibited”. Further, in series [4], the “portion converted to its cis-isomer” value was “about 86%” and the “concentration of the compound after illumination” value was determined as 6.2%. In addition, in series [5], the “apoptosis induction in BT20” value is given as “induce apoptosis”. Besides, the “viability of PMA-differentiated THP-1 cells” value in series [6] was “Neither cis- nor trans-gnetin H affected the viability of the cells”. The “cell viability with LPS relative to untreated control” value in series [6] (pretreated at 50 μM and LPS) was “decreased viability”. In series [7], the “IκB α phosphorylation” value is reported as “significantly inhibited”.
